Activity calls are given as the source filed them. The calls are words filed in the database; no cut-off is given here.
The molecules below were run on HCT-116 (assay: Induction of cell cycle arrest in human HCT116 cells assessed as accumulation at G2/M phase at 3.9 to 19.8 uM after 24 hrs by propidium iodide-staining based flow cytometry relative to control).
Format: functional

| SMILES | Activity |
| --- | --- |
| CCn1cnc2c(Nc3cccc(Cl)c3)nc(N[C@@H]3CCCC[C@@H]3N)nc21 | <=30% |

These molecules were tested on HCT-116 (assay: Induction of cell cycle arrest in human HCT116 cells assessed as accumulation at G2/M phase at 19.8 to 100 uM after 24 hrs by propidium iodide-staining based flow cytometry relative to control).
Format: functional

| SMILES | Activity |
| --- | --- |
| CC(=O)c1cnc2oc3ccc(O)cc3c2c1-c1ccccc1 | inactive |
| CCOC(=O)c1cnc2oc3ccc(O)cc3c2c1-c1ccccc1 | inactive |

The molecules below were run on HCT-116 (assay: Induction of cell cycle arrest in human HCT116 cells assessed as accumulation at G2/M phase after 24 hrs by propidium iodide-staining based flow cytometry).
Format: functional

| SMILES | Activity |
| --- | --- |
| CNC(=O)c1nn(C)c2c1C(C)(C)Cc1cnc(Nc3ccc(N4CCN(C)CC4)cc3)nc1-2 [MILCICLIB] | 30 - 60% |
| COc1ccc2c(c1)/C(=C/c1cnc[nH]1)C(=O)N2 [SU-9516] | 30 - 60% |
| O=C1Nc2ccc3ncsc3c2/C1=C/Nc1ccc(S(=O)(=O)Nc2ccccn2)cc1 | 30 - 60% |
| COc1ccc(CNc2nc(N(CCO)CCO)nc3c2ncn3C(C)C)cc1 | <=30% |

What follows are molecules tested on HCT-116 (assay: Induction of cell cycle arrest in human HCT116 cells assessed as reduction in accumulation at G1 phase at 1.7 to 19.8 uM after 24 hrs by propidium iodide-staining based flow cytometry).
Format: functional

| SMILES | Activity |
| --- | --- |
| CCNc1cc(N[C@H]2CC[C@H](O)CC2)nc(Nc2ccc3c(ccn3Cc3ccccc3)c2)n1 | Active |

The molecules below were run on HCT-116 (assay: Induction of cell cycle arrest in CDK2 knocked out human HCT116 cells assessed as accumulation at G2/M phase at 5 to 20 uM after 24 hrs by propidium iodide-staining based flow cytometry).
Format: functional

| SMILES | Activity |
| --- | --- |
| COc1ccc2c(c1)/C(=C/c1cnc[nH]1)C(=O)N2 [SU-9516] | Active |

These molecules were tested on HCT-116 (assay: Induction of cell cycle arrest in human HCT116 cells assessed as accumulation at G2/M phase at 5 to 20 uM after 24 hrs by propidium iodide-staining based flow cytometry).
Format: functional

| SMILES | Activity |
| --- | --- |
| COc1ccc2c(c1)/C(=C/c1cnc[nH]1)C(=O)N2 [SU-9516] | Active |

Each molecule was assayed on HCT-116 (assay: Induction of cell cycle arrest in human HCT116 cells assessed as reduction in accumulation at G1 phase 19.8 to 100 uM after 24 hrs by propidium iodide-staining based flow cytometry).
Format: functional

| SMILES | Activity |
| --- | --- |
| COc1ccc(OC)c2c(=S)c3ccccc3[nH]c12 | Active |

Each molecule was assayed on HCT-116 (assay: Induction of cell cycle arrest in human HCT116 cells at 19.8 to 100 uM after 24 hrs by propidium iodide-staining based flow cytometry relative to control).
Format: functional

| SMILES | Activity |
| --- | --- |
| Nc1n[nH]c2nc3ccccc3nc12 [QUINOXALINE1] | inactive |

These molecules were tested against Cyclin-dependent kinase 9 (Homo sapiens) (UniProt P50750) (assay: Inhibition of CDK9 in human HCT116 cells assessed as induction of dephosphorylation of RNA polymerase 2 S2/S5 residues at 250 to 500 nM after 24 hrs by Western blot analysis).
Format: cell-based

Sequence of Cyclin-dependent kinase 9 (Homo sapiens) (P50750 whole entry): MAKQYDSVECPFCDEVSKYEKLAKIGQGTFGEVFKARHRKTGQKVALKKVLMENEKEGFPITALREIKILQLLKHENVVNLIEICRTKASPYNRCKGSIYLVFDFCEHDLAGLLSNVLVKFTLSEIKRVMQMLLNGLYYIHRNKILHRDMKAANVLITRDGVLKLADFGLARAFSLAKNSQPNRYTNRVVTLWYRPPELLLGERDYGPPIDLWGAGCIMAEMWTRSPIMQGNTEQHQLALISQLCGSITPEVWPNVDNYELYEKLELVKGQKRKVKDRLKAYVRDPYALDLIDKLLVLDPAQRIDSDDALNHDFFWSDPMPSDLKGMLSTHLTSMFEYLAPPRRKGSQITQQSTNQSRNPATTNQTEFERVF

| SMILES | Activity |
| --- | --- |
| Nc1cc(Nc2ccc(S(N)(=O)=O)cc2)ncn1 | inactive |

These molecules were tested on HCT-116 (assay: Induction of cell cycle arrest in human HCT116 cells assessed as accumulation at G2/M phase at 1.7 to 19.8 uM after 24 hrs by propidium iodide-staining based flow cytometry).
Format: functional

| SMILES | Activity |
| --- | --- |
| O=C1Nc2cc(Br)ccc2/C1=C1/Nc2ccccc2/C1=N\O [6BIO] | <=30% |
| CCNc1cc(N[C@H]2CC[C@H](O)CC2)nc(Nc2ccc3c(ccn3Cc3ccccc3)c2)n1 | 30 - 60% |

What follows are molecules tested against CDK2/Cyclin A2 (Homo sapiens, UniProt P24941) (assay: not given).

| SMILES | IC50 |
| --- | --- |
| CNC(=O)c1nn(C)c2c1C(C)(C)Cc1cnc(Nc3ccc(N4CCN(C)CC4)cc3)nc1-2 [MILCICLIB] | 0.109 µM |
| Nc1cc(Nc2ccc(S(N)(=O)=O)cc2)ncn1 | 0.946 µM |
| CC(=O)c1cnc2oc3ccc(O)cc3c2c1-c1ccccc1 | > 20 µM |
| CCOC(=O)c1cnc2oc3ccc(O)cc3c2c1-c1ccccc1 | 7.1 µM |
| CCn1cnc2c(Nc3cccc(Cl)c3)nc(N[C@@H]3CCCC[C@@H]3N)nc21 | 0.046 µM |
| COc1ccc(OC)c2c(=S)c3ccccc3[nH]c12 | > 20 µM |
| Nc1n[nH]c2nc3ccccc3nc12 [QUINOXALINE1] | 0.01 µM |

What follows are molecules tested against Cyclin-dependent kinase 1/cyclin B1 (Homo sapiens, UniProt P06493) (assay: biochemical).
Sequence of Cyclin-dependent kinase 1/cyclin B1 (P06493 whole entry): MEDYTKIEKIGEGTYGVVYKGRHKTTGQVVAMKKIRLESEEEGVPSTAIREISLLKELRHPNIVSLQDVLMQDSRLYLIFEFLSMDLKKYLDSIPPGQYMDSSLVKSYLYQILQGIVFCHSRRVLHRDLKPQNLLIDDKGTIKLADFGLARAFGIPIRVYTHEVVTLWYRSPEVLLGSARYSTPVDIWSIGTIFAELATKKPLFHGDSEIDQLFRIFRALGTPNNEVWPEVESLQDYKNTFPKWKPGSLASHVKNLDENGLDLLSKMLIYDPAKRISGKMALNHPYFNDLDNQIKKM
Sequence of Cyclin-dependent kinase 1/cyclin B1 (P14635 whole entry, further chain): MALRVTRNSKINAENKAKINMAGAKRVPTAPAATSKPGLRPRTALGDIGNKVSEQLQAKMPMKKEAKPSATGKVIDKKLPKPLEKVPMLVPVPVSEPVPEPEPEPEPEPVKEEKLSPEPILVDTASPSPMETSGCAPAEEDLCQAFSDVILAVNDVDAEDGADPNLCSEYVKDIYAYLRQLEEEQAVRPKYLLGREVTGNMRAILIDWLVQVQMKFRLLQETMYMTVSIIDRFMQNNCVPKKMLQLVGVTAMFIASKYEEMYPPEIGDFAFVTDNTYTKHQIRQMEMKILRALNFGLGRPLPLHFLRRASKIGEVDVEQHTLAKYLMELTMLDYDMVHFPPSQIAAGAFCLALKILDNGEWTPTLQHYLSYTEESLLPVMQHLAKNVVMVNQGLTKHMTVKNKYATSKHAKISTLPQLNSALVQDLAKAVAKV

| SMILES | IC50 |
| --- | --- |
| CNC(=O)c1nn(C)c2c1C(C)(C)Cc1cnc(Nc3ccc(N4CCN(C)CC4)cc3)nc1-2 [MILCICLIB] | 1.2 µM |
| Nc1cc(Nc2ccc(S(N)(=O)=O)cc2)ncn1 | 5.3 µM |
| CC(=O)c1cnc2oc3ccc(O)cc3c2c1-c1ccccc1 | > 20 µM |
| CCOC(=O)c1cnc2oc3ccc(O)cc3c2c1-c1ccccc1 | > 20 µM |
| CCn1cnc2c(Nc3cccc(Cl)c3)nc(N[C@@H]3CCCC[C@@H]3N)nc21 | 0.147 µM |
| COc1ccc(OC)c2c(=S)c3ccccc3[nH]c12 | > 20 µM |
| O=C1Nc2ccc3ncsc3c2/C1=C/Nc1ccc(S(=O)(=O)Nc2ccccn2)cc1 | 0.049 µM |
| COc1ccc(CNc2nc(N(CCO)CCO)nc3c2ncn3C(C)C)cc1 | 3.7 µM |
| Nc1n[nH]c2nc3ccccc3nc12 [QUINOXALINE1] | 9.7 µM |

Each molecule was assayed against Cyclin-dependent kinase 2/cyclin E1 (Homo sapiens, UniProt P24941) (assay: biochemical).

| SMILES | IC50 |
| --- | --- |
| CNC(=O)c1nn(C)c2c1C(C)(C)Cc1cnc(Nc3ccc(N4CCN(C)CC4)cc3)nc1-2 [MILCICLIB] | 0.59 µM |
| Nc1cc(Nc2ccc(S(N)(=O)=O)cc2)ncn1 | 1.9 µM |
| CC(=O)c1cnc2oc3ccc(O)cc3c2c1-c1ccccc1 | > 20 µM |
| CCOC(=O)c1cnc2oc3ccc(O)cc3c2c1-c1ccccc1 | 14.3 µM |
| CCn1cnc2c(Nc3cccc(Cl)c3)nc(N[C@@H]3CCCC[C@@H]3N)nc21 | 0.026 µM |
| COc1ccc(OC)c2c(=S)c3ccccc3[nH]c12 | > 20 µM |
| Nc1n[nH]c2nc3ccccc3nc12 [QUINOXALINE1] | 5.6 µM |

Each molecule was assayed against Cyclin-dependent kinase 4/cyclin D1 (Homo sapiens, UniProt P11802) (assay: biochemical).
Sequence of Cyclin-dependent kinase 4/cyclin D1 (P11802 whole entry): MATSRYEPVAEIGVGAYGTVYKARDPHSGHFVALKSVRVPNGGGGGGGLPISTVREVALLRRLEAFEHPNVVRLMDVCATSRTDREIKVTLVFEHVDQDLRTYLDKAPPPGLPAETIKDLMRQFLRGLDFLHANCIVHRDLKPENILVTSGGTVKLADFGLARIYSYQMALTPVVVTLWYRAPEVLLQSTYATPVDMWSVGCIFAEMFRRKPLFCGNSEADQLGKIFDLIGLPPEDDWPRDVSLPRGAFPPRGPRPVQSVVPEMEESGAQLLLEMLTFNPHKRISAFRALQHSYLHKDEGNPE
Sequence of Cyclin-dependent kinase 4/cyclin D1 (P24385 whole entry, further chain): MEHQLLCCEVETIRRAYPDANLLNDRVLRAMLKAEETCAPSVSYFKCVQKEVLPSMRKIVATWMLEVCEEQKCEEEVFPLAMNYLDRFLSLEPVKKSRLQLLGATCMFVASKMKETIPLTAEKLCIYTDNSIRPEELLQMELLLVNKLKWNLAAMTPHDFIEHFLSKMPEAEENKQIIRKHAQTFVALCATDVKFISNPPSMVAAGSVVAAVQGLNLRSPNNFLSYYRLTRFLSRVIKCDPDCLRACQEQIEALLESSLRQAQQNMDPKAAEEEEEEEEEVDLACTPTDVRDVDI

| SMILES | IC50 |
| --- | --- |
| Nc1cc(Nc2ccc(S(N)(=O)=O)cc2)ncn1 | > 20 µM |
| CC(=O)c1cnc2oc3ccc(O)cc3c2c1-c1ccccc1 | > 20 µM |
| CCOC(=O)c1cnc2oc3ccc(O)cc3c2c1-c1ccccc1 | > 20 µM |
| CCn1cnc2c(Nc3cccc(Cl)c3)nc(N[C@@H]3CCCC[C@@H]3N)nc21 | 3 µM |
| COc1ccc(OC)c2c(=S)c3ccccc3[nH]c12 | > 20 µM |
| O=C1Nc2ccc3ncsc3c2/C1=C/Nc1ccc(S(=O)(=O)Nc2ccccn2)cc1 | 0.139 µM |
| COc1ccc(CNc2nc(N(CCO)CCO)nc3c2ncn3C(C)C)cc1 | > 20 µM |
| Nc1n[nH]c2nc3ccccc3nc12 [QUINOXALINE1] | > 20 µM |

What follows are molecules tested against Cyclin-dependent kinase 5/CDK5 activator 1 (Homo sapiens, UniProt Q00535) (assay: biochemical).
Sequence of Cyclin-dependent kinase 5/CDK5 activator 1 (Q00535 whole entry): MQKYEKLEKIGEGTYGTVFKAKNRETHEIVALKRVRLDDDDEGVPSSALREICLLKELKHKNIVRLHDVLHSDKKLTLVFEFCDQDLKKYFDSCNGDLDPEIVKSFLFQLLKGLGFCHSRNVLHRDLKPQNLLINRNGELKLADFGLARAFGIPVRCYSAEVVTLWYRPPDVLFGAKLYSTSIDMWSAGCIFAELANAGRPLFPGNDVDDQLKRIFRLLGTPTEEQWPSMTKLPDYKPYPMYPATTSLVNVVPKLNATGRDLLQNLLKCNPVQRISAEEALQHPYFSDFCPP
Sequence of Cyclin-dependent kinase 5/CDK5 activator 1 (Q15078 whole entry, further chain): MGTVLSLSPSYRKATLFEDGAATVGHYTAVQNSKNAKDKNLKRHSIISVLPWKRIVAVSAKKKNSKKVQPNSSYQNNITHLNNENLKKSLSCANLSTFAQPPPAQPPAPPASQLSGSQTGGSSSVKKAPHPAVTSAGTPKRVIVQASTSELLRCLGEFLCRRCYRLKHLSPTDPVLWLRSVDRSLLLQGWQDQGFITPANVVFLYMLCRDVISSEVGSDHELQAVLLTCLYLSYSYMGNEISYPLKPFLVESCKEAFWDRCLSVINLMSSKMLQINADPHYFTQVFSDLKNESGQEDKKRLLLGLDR

| SMILES | IC50 |
| --- | --- |
| CN(C)C(=O)c1cc2cnc(Nc3ccc(N4CCNCC4)cn3)nc2n1C1CCCC1 [RIBOCICLIB] | > 20 µM |
| Nc1cc(Nc2ccc(S(N)(=O)=O)cc2)ncn1 | 4.4 µM |
| CC(=O)c1cnc2oc3ccc(O)cc3c2c1-c1ccccc1 | 17.5 µM |
| CCOC(=O)c1cnc2oc3ccc(O)cc3c2c1-c1ccccc1 | > 20 µM |
| CCn1cnc2c(Nc3cccc(Cl)c3)nc(N[C@@H]3CCCC[C@@H]3N)nc21 | 0.026 µM |
| COc1ccc(OC)c2c(=S)c3ccccc3[nH]c12 | > 20 µM |
| O=C1Nc2ccc3ncsc3c2/C1=C/Nc1ccc(S(=O)(=O)Nc2ccccn2)cc1 | 0.007 µM |
| COc1ccc(CNc2nc(N(CCO)CCO)nc3c2ncn3C(C)C)cc1 | 0.419 µM |
| CCNc1cc(N[C@H]2CC[C@H](O)CC2)nc(Nc2ccc3c(ccn3Cc3ccccc3)c2)n1 | > 10 µM |
| Nc1n[nH]c2nc3ccccc3nc12 [QUINOXALINE1] | 13.7 µM |

These molecules were tested against CDK7/Cyclin H/MNAT1 (Homo sapiens, UniProt P50613) (assay: biochemical).
Sequence of CDK7/Cyclin H/MNAT1 (P51946 whole entry): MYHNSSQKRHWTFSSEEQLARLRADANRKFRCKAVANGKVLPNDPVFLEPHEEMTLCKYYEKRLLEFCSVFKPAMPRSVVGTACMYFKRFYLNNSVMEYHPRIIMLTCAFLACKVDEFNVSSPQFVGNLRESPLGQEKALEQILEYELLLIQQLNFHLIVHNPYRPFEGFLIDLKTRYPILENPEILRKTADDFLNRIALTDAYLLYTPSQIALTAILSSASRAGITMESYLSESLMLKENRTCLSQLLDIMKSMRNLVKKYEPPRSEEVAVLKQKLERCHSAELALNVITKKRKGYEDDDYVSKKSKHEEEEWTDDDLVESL
Sequence of CDK7/Cyclin H/MNAT1 (P50613 whole entry): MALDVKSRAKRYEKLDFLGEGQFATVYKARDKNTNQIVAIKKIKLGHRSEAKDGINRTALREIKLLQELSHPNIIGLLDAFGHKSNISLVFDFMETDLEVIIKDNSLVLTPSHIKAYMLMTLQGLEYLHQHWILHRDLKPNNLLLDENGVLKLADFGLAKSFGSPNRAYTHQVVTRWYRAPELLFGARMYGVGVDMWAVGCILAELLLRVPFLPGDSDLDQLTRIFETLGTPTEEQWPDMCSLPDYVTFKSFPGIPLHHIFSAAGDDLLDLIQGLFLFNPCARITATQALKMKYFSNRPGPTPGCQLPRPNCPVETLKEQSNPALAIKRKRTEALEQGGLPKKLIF
Sequence of CDK7/Cyclin H/MNAT1 (P51948 whole entry, further chain): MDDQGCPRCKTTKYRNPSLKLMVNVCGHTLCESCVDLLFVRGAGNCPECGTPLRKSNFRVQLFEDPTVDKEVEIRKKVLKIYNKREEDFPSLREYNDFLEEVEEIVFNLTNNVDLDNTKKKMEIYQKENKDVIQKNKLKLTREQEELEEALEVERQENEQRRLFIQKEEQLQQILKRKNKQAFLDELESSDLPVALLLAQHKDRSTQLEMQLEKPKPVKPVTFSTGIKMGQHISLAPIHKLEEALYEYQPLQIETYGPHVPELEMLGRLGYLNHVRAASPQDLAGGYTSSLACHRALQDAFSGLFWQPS

| SMILES | IC50 |
| --- | --- |
| CN(C)C(=O)c1cc2cnc(Nc3ccc(N4CCNCC4)cn3)nc2n1C1CCCC1 [RIBOCICLIB] | > 20 µM |
| Nc1cc(Nc2ccc(S(N)(=O)=O)cc2)ncn1 | > 20 µM |
| O=C1Nc2cc(Br)ccc2/C1=C1/Nc2ccccc2/C1=N\O [6BIO] | 3.5 µM |
| CC(=O)c1cnc2oc3ccc(O)cc3c2c1-c1ccccc1 | > 20 µM |
| CCOC(=O)c1cnc2oc3ccc(O)cc3c2c1-c1ccccc1 | > 20 µM |
| CCn1cnc2c(Nc3cccc(Cl)c3)nc(N[C@@H]3CCCC[C@@H]3N)nc21 | 0.279 µM |
| COc1ccc(OC)c2c(=S)c3ccccc3[nH]c12 | > 20 µM |
| O=C1Nc2ccc3ncsc3c2/C1=C/Nc1ccc(S(=O)(=O)Nc2ccccn2)cc1 | 0.317 µM |
| COc1ccc(CNc2nc(N(CCO)CCO)nc3c2ncn3C(C)C)cc1 | 9.2 µM |
| CCNc1cc(N[C@H]2CC[C@H](O)CC2)nc(Nc2ccc3c(ccn3Cc3ccccc3)c2)n1 | > 10 µM |
| Nc1n[nH]c2nc3ccccc3nc12 [QUINOXALINE1] | > 20 µM |

The molecules below were run against CDK9/cyclin T1 (Homo sapiens, UniProt P50750) (assay: biochemical).
Sequence of CDK9/cyclin T1 (O60563 whole entry): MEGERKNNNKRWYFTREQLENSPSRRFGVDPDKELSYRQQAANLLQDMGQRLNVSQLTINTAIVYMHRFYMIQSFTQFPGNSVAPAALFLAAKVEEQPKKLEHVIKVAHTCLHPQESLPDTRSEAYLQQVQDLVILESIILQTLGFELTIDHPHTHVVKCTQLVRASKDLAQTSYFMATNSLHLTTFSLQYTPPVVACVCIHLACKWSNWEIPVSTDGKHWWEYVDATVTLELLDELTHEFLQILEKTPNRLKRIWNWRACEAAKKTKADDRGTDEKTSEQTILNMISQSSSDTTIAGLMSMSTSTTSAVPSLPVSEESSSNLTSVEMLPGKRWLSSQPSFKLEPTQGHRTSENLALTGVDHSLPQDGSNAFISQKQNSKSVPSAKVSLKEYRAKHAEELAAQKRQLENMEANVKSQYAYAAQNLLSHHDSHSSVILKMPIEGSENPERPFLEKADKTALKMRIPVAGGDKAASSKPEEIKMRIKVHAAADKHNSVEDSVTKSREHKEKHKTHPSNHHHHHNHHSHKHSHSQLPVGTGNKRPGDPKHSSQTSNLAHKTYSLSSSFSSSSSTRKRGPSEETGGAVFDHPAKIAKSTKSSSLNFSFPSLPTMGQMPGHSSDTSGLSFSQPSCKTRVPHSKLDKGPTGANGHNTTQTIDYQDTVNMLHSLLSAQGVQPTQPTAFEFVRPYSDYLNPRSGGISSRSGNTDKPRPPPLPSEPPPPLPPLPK
Sequence of CDK9/cyclin T1 (P50750 whole entry): as the sequence (P50750 whole entry) above

| SMILES | IC50 |
| --- | --- |
| Nc1cc(Nc2ccc(S(N)(=O)=O)cc2)ncn1 | > 20 µM |
| O=C1Nc2cc(Br)ccc2/C1=C1/Nc2ccccc2/C1=N\O [6BIO] | 0.45 µM |
| CC(=O)c1cnc2oc3ccc(O)cc3c2c1-c1ccccc1 | > 20 µM |
| CCOC(=O)c1cnc2oc3ccc(O)cc3c2c1-c1ccccc1 | > 20 µM |
| CCn1cnc2c(Nc3cccc(Cl)c3)nc(N[C@@H]3CCCC[C@@H]3N)nc21 | 1.4 µM |
| COc1ccc(OC)c2c(=S)c3ccccc3[nH]c12 | > 20 µM |
| COc1ccc(CNc2nc(N(CCO)CCO)nc3c2ncn3C(C)C)cc1 | 2.3 µM |
| CCNc1cc(N[C@H]2CC[C@H](O)CC2)nc(Nc2ccc3c(ccn3Cc3ccccc3)c2)n1 | > 10 µM |
| Nc1n[nH]c2nc3ccccc3nc12 [QUINOXALINE1] | 14.1 µM |

Source: ChEMBL document CHEMBL4308846, “How Selective Are Pharmacological Inhibitors of Cell-Cycle-Regulating Cyclin-Dependent Kinases?” (J Med Chem, 2018)
